From patent US6479467B1, “Cyclodextrin ethers” (Eastman Chemical Company, priority 1999, dated 2002)

Method: The suspensions were stirred for 24 hours at 25° C. The undissolved residues were removed by filtration through a […] filter. The solutions were diluted with a 1:1 water/ethanol mixture and concentrations of the guest molecules were determined spectrophotometrically using an HP 8542 diode array spectrophotometer. The solubility of the guest molecules was represented as a function of the CD derivative concentration. The apparent binding constants were calculated from the slope of the solubility isotherm. The guest molecules evaluated were water-immiscible pharmaceuticals, fragrances, and other organic molecules.

| Compound | Kc(HBen-β-CD), apparent binding constant in guest molecule/CD derivative complex [M⁻¹] | Kc(HP-β-CD), apparent binding constant in guest molecule/CD derivative complex [M⁻¹] | Binding constants compared with HP-β-CD, in words |
| --- | --- | --- | --- |
| CC(C)Cc1ccc(C(C)C(=O)O)cc1 (centres unmarked) [Ibuprofen, ibuprofen] | 520 | 376 | – |
| hydroxybutenyl-β-cyclodextrin [HBen-β-CD] | – | – | higher binding constants than did HP-β-CD |
| Cc1ccccc1 [Toluene, toluene] | 1111 | 773 | – |
| COc1ccc(Cl)cc1C(=O)NCCc1ccc(S(=O)(=O)NC(=O)NC2CCCCC2)cc1 [Glibenclamide, glibenclamide] | 136 | 62 | – |
| O=C(O)c1ccccc1O [Salicylic Acid, salicylic acid] | 183 | – | – |
